Measured values published in patent US20180273897A1, “MODIFIED T-CELLS HAVING ANTI-FUGETACTIC PROPERTIES AND USES THEREOF” (THE GENERAL HOSPITAL CORPORATION, priority 2015, published 2018).

Tested on: human CD3+ T cells
Details: T cells pre-incubated with 0.01 μM to 10 mM AMD3100; harvested after 3 h; anti-fugetactic at lower, fugetactic at higher concentrations
Description: For quantitative transmigration assays, purified human CD3^+ T cells (approximately 2×10^4 cells) are added to the upper chamber of a Transwell® insert in each well, to a total volume of 150 μl of Iscove's modified medium. […] To determine the anti-fugetactic concentration of AMD3100, the T cells are incubated with 0.01 μM to 10 mM AMD3100 prior to addition to the chamber. Cells are harvested from the lower chamber after 3 h, and cell counts are performed using a hemocytometer.

## c1cc(CN2CCCNCCNCCCNCC2)ccc1CN1CCCNCCNCCCNCC1 [AMD3100, 1,1′[1,4-phenylenebis(methylene)]bis [1,4,8,11-tetraazacyclotetradecane]]
  Effect on T cell migration away from tumor cells (anti-fugetactic versus fugetactic): bimodal effect
